Data: EP4768499A1, “MACROCYCLIC PEPTIDE COMPOUND HAVING CELL MEMBRANE PERMEABILITY AND METABOLIC STABILITY, AND LIBRARY CONTAINING SAME” (Chugai Seiyaku Kabushiki Kaisha, priority 2023, dated 2025)
Like-named read-outs stand apart in the source and are kept apart here. Starred links: 1 amine or outer side, 2 acyl side, 3 side chain; linkers in the order of their positions; H or OH if unused. Positions of bridges follow the written chain, without caps; N, C: chain ends. Non-standard residues stand in square brackets, D forms with d. Residues, ends and D or L forms follow the SMILES beside them. *: point of attachment. NMeF = CN[C@@H](Cc1ccccc1)C(=O)O; NMeGABA = CN(CCCC(=O)[*:2])[*:1]; NMeI = CC[C@H](C)[C@H](NC)C(=O)O; NMeT = CN[C@H](C(=O)O)[C@@H](C)O; hPhe = N[C@@H](CCc1ccccc1)C(=O)O; NMeβAla = CN(CCC(=O)[*:2])[*:1]; NMeD = CN[C@@H](CC(=O)O)C(=O)O; NMeL = CN[C@@H](CC(C)C)C(=O)O; NMeV = CN[C@H](C(=O)O)C(C)C; NMeAbu = CC[C@H](NC)C(=O)O; NMeA = CN[C@@H](C)C(=O)O; Piperidide = C1CCN(*)CC1; Abu = CC[C@H](N)C(=O)O; NBuGly = CCCCNCC(=O)O; βAla = NCCC(=O)O; Sar = CNCC(=O)O; tBu = CC(C)(C)*

Legend:
[1] = Metabolic stability test: liver microsomal stability assay; assay type: in vitro ADME, mouse; settings: for microsomal CLint at 1 µM: male, pH 7.4, presence of NADPH, read-out: Mouse Hepatic Microsome CLh,int NADPH(+)
[2] = Membrane permeability test using Caco-2 cells with preincubation; assay type: in vitro ADME; settings: Caco-2
[3] = test system: Caco-2 cells; assay: as above; assay type: in vitro ADME
[4] = mouse liver microsomes 0.5 mg protein/mL, compound 1 µM
[5] = mouse liver microsomes 0.5 mg protein/mL, compound 1 µM, absence of NADPH
[6] = preincubation 20 to 24 hours, Apical FaSSIF/HBSS pH 6.0, Basal HBSS 4% BSA pH 7.4, 180 minutes, read-out: Caco2 Papp
[7] = Caco-2 cells, preincubation 20 to 24 hours, apical FaSSIF/HBSS 1% DMSO pH 6.0, basal HBSS 4% BSA pH 7.4, basal sample at 180 minutes

| SMILES | microsomal CLint at 1 µM [1, 4] [µL/min/mg] | Mouse Hepatic Microsome CLh,int NADPH(-) [1, 5] [µL/min/mg Protein] | Papp A→B [2, 6] [×10⁻⁶ cm/s] | Caco2 Papp (10^-6 cm/sec) [3, 7] | Mouse Hepatic Microsome CLh,int NADPH(-) [1] [µL/min/mg Protein] | Papp A→B [2] [×10⁻⁶ cm/s] | Caco2 Papp (10^-6 cm/sec) ([3]; Caco-2) |
| --- | --- | --- | --- | --- | --- | --- | --- |
| CC[C@H]1C(=O)N(C)CC(=O)N(C)[C@@H](CC(C)C)C(=O)N[C@@H](COC(C)(C)C)C(=O)N(C)[C@@H](C)C(=O)N(C)[C@@H](Cc2ccccc2)C(=O)N(C)CC(=O)N(C)[C@H](C(=O)N2CCCCC2)CC(=O)N[C@H](C(C)C)C(=O)N(C)[C@@H](Cc2ccccc2)C(=O)NCCC(=O)N(C)[C@@H](C(C)C)C(=O)N[C@@H]([C@@H](C)O)C(=O)N(C)[C@@H](CC(C)C)C(=O)N1C [pd094] ([dV][NMeF][βAla][NMeV]T[NMeL][NMeAbu][Sar][NMeL]S(tBu)[NMeA][NMeF][Sar][NMeD]-Piperidide; lactam N-14) | 22.5 | 16.7 | < 0.13 | <0.13 10^-6 cm/sec | – | – | – |
| CC[C@H](C)[C@@H]1NC(=O)[C@H](Cc2ccccc2)N(C)C(=O)[C@H]([C@@H](C)O)N(C)C(=O)[C@H]([C@@H](C)CC)N(C)C(=O)[C@H](CC(C)C)NC(=O)CN(C)C(=O)[C@H](CC)N(C)C(=O)[C@H](Cc2ccccc2)N(C)C(=O)[C@H](COC(C)(C)C)NC(=O)[C@H](CC(C)C)N(C)C(=O)[C@H](CC(C)C)NC(=O)[C@H](C)N(C)C(=O)C[C@@H](C(=O)N2CCCCC2)N(C)C(=O)[C@H](CC(C)C)N(C)C1=O [pd095] ([NMeA]L[NMeL]S(tBu)[NMeF][NMeAbu][Sar]L[NMeI][NMeT][NMeF]I[NMeL][NMeD]-Piperidide; lactam N-14) | 25.6 | 29.2 | < 0.1 | <0.10 10^-6 cm/sec | – | – | – |
| CC[C@H](C)[C@H]1C(=O)N(C)[C@@H](CC(C)C)C(=O)N[C@@H](CCc2ccccc2)C(=O)N(C)[C@@H](CC(C)C)C(=O)N(C)CCC(=O)N(C)[C@@H](C(C)C)C(=O)N[C@@H](CC(C)C)C(=O)N(C)[C@@H](CC(C)C)C(=O)N[C@@H]([C@@H](C)O)C(=O)N(C)CCC(=O)N(C)[C@@H](Cc2ccccc2)C(=O)N[C@@H](C(C)C)C(=O)N(C)[C@H](C(=O)N2CCCCC2)CC(=O)N(C)CC(=O)N1C [pd096] ([Sar][NMeI][NMeL][hPhe][NMeL][NMeβAla][NMeV]L[NMeL]T[NMeβAla][NMeF]V[NMeD]-Piperidide; lactam N-14) | – | – | – | – | 18.2 | 0.51 | 0.51 10^-6 cm/sec |
| CC(C)C[C@@H]1NC(=O)[C@@H]2CCCN2C(=O)[C@H](C(C)C)N(C)C(=O)[C@H](C)NC(=O)[C@H](CC(C)C)N(C)C(=O)[C@@H](C(C)C)NC(=O)C[C@@H](C(=O)N2CCCCC2)NC(=O)[C@H](C(C)C)N(C)C(=O)[C@H](Cc2ccccc2)N(C)C(=O)[C@H](CC(C)C)NC(=O)[C@H](COC(C)(C)C)NC(=O)[C@H](CC(C)C)N(C)C(=O)CN(C)C1=O [pd097] ([dV][NMeL]A[NMeV]PL[Sar][NMeL]S(tBu)L[NMeF][NMeV]D-Piperidide; lactam N-13) | 20.4 | 18.8 | 0.54 | 0.54 10^-6 cm/sec | – | – | – |
| CC[C@H](C)[C@@H]1NC(=O)[C@H](C)NC(=O)[C@H](CC(C)C)N(C)C(=O)[C@H](COC(C)(C)C)NC(=O)[C@H](CC(C)C)N(C)C(=O)[C@@H]2CCCN2C(=O)[C@H](Cc2ccccc2)NC(=O)[C@H]([C@@H](C)CC)N(C)C(=O)[C@H](CC(C)C)N(C)C(=O)CCCN(C)C(=O)C[C@@H](C(=O)N2CCCCC2)NC(=O)[C@H](Cc2ccccc2)N(C)C(=O)[C@H](CC)N(C)C1=O [pd098] ([NMeGABA][NMeL][NMeI]FP[NMeL]S(tBu)[NMeL]AI[NMeAbu][NMeF]D-Piperidide; lactam N-13) | 44.5 | 37.8 | 0.57 | 0.57 10^-6 cm/sec | – | – | – |
| CCCCN1CC(=O)N(C)[C@@H](CC)C(=O)N[C@H](C(=O)N2CCCCC2)CC(=O)N(C)[C@@H](C)C(=O)N[C@@H]([C@@H](C)CC)C(=O)N(C)[C@@H](Cc2ccccc2)C(=O)N(C)[C@@H](CC(C)C)C(=O)N[C@@H](C(C)C)C(=O)N(C)CC(=O)N[C@@H](CC(C)C)C(=O)N(C)[C@@H](Cc2ccccc2)C(=O)N(C)[C@@H](C)C(=O)N[C@@H](CC(C)C)C1=O [pd099] ([NMeA]I[NMeF][NMeL]V[Sar]L[NMeF][NMeA]L[NBuGly][NMeAbu]D-Piperidide; lactam N-13) | 30.3 | 27.8 | 0.41 | 0.41 10^-6 cm/sec | – | – | – |
| CCCCN1CC(=O)N[C@@H](COC(C)(C)C)C(=O)N(C)[C@@H](Cc2ccccc2)C(=O)N[C@@H](CC(C)C)C(=O)N(C)[C@@H](C(C)C)C(=O)N[C@H](C(=O)N2CCCCC2)CC(=O)N[C@H](C(C)C)C(=O)N(C)[C@@H](Cc2ccccc2)C(=O)N[C@@H](CC(C)C)C(=O)N(C)[C@@H](C(C)C)C(=O)N(C)[C@@H](CC(C)C)C(=O)N[C@@H]([C@@H](C)O)C(=O)N(C)[C@@H](CC(C)C)C1=O [pd100] ([dV][NMeF]L[NMeV][NMeL]T[NMeL][NBuGly]S(tBu)[NMeF]L[NMeV]D-Piperidide; lactam N-13) | 39.6 | 28.4 | < 0.12 | <0.12 10^-6 cm/sec | – | – | – |
| CC[C@@H]1NC(=O)[C@H](Cc2ccccc2)N(C)C(=O)[C@H]([C@@H](C)CC)NC(=O)[C@H](CC(C)C)N(C)C(=O)[C@H](CC(C)C)NC(=O)CCN(C)C(=O)C[C@@H](C(=O)N2CCCCC2)NC(=O)[C@H](CC(C)C)N(C)C(=O)[C@H](C)N(C)C(=O)[C@H]([C@@H](C)O)NC(=O)[C@H](CC(C)C)N(C)C(=O)[C@H](C(C)C)NC(=O)[C@H](Cc2ccccc2)N(C)C1=O [pd101] ([NMeβAla]L[NMeL]I[NMeF][Abu][NMeF]V[NMeL]T[NMeA][NMeL]D-Piperidide; lactam N-13) | 41.1 | 31.5 | 0.16 | 0.16 10^-6 cm/sec | – | – | – |

Now from value to compound, other results behind:

| microsomal CLint at 1 µM [1, 4] [µL/min/mg] | Mouse Hepatic Microsome CLh,int NADPH(-) [1, 5] [µL/min/mg Protein] | Papp A→B [2, 6] [×10⁻⁶ cm/s] | Caco2 Papp (10^-6 cm/sec) [3, 7] | SMILES | Mouse Hepatic Microsome CLh,int NADPH(-) [1] [µL/min/mg Protein] | Papp A→B [2] [×10⁻⁶ cm/s] | Caco2 Papp (10^-6 cm/sec) ([3]; Caco-2) |
| --- | --- | --- | --- | --- | --- | --- | --- |
| 32.9 | 25.1 | 0.09 | 0.09 10^-6 cm/sec | CC[C@H](C)[C@@H]1NC(=O)[C@H](C)N(C)C(=O)[C@H]([C@@H](C)O)NC(=O)[C@H](Cc2ccccc2)N(C)C(=O)[C@H](COC(C)(C)C)NC(=O)[C@H](CC(C)C)N(C)C(=O)[C@H](CCc2ccccc2)NC(=O)[C@@H]2CCCN2C(=O)[C@H]([C@@H](C)CC)NC(=O)[C@H](CC(C)C)N(C)C(=O)CCCN(C)C(=O)C[C@@H](C(=O)N2CCCCC2)NC(=O)[C@H](CC(C)C)N(C)C1=O [pd102] ([NMeGABA][NMeL]IP[hPhe][NMeL]S(tBu)[NMeF]T[NMeA]I[NMeL]D-Piperidide; lactam N-13) | – | – | – |
| 25.5 | 21.3 | 0.08 | 0.08 10^-6 cm/sec | CCCCN1CC(=O)N[C@@H]([C@@H](C)CC)C(=O)N(C)[C@@H](CC(C)C)C(=O)N[C@H](C(=O)N2CCCCC2)CC(=O)N(C)[C@@H](C)C(=O)N(C)[C@@H](CC(C)C)C(=O)N[C@@H]([C@@H](C)O)C(=O)N(C)[C@@H](Cc2ccccc2)C(=O)N[C@@H](CC)C(=O)N(C)[C@@H](Cc2ccccc2)C(=O)N[C@@H](CC(C)C)C(=O)N(C)[C@@H]([C@@H](C)CC)C(=O)N[C@@H](CC(C)C)C1=O [pd103] ([NMeA][NMeL]T[NMeF][Abu][NMeF]L[NMeI]L[NBuGly]I[NMeL]D-Piperidide; lactam N-13) | – | – | – |
| 36 | 36.2 | 0.2 | 0.20 10^-6 cm/sec | CC[C@H](C)[C@@H]1NC(=O)[C@H](CC(C)C)N(C)C(=O)[C@H](CC(C)C)NC(=O)[C@H](C)N(C)C(=O)C[C@@H](C(=O)N2CCCCC2)NC(=O)[C@H](CC(C)C)NC(=O)[C@@H]2CCCN2C(=O)[C@H](CC(C)C)N(C)C(=O)[C@H]([C@@H](C)O)NC(=O)[C@H]([C@@H](C)CC)N(C)C(=O)[C@H](Cc2ccccc2)N(C)C(=O)[C@H](C)NC(=O)[C@H](Cc2ccccc2)N(C)C1=O [pd104] ([NMeA]L[NMeL]I[NMeF]A[NMeF][NMeI]T[NMeL]PLD-Piperidide; lactam N-13) | – | – | – |
| 28.9 | 22.7 | 0.11 | 0.11 10^-6 cm/sec | CC[C@@H]1NC(=O)[C@H](Cc2ccccc2)N(C)C(=O)[C@H](CC(C)C)NC(=O)CNC(=O)[C@H]([C@@H](C)O)N(C)C(=O)[C@H](CC(C)C)N(C)C(=O)[C@H]([C@@H](C)CC)NC(=O)[C@H](Cc2ccccc2)N(C)C(=O)CN(C)C(=O)C[C@@H](C(=O)N2CCCCC2)NC(=O)[C@H](C(C)C)N(C)C(=O)[C@H](CC(C)C)NC(=O)[C@H](C)N(C)C1=O [pd105] ([Sar][NMeF]I[NMeL][NMeT]GL[NMeF][Abu][NMeA]L[NMeV]D-Piperidide; lactam N-13) | – | – | – |
| 32.7 | 37.4 | 0.24 | 0.24 10^-6 cm/sec | CC[C@@H]1NC(=O)[C@H](C(C)C)N(C)C(=O)[C@H](CC(C)C)NC(=O)[C@H](CC(C)C)N(C)C(=O)[C@H]([C@@H](C)O)NC(=O)CN(C)C(=O)[C@H]([C@@H](C)CC)NC(=O)[C@H](Cc2ccccc2)N(C)C(=O)[C@H](CC(C)C)N(C)C(=O)C[C@@H](C(=O)N2CCCCC2)NC(=O)[C@H](Cc2ccccc2)N(C)C(=O)[C@H](COC(C)(C)C)NC(=O)[C@@H]2CCCN2C1=O [pd106] ([NMeL][NMeF]I[Sar]T[NMeL]L[NMeV][Abu]PS(tBu)[NMeF]D-Piperidide; lactam N-13) | – | – | – |
